# In paper PMC6353850, “Supersensitive Odorant Receptor Underscores Pleiotropic Roles of Indoles in Mosquito Ecology” (Frontiers in Cellular Neuroscience, 2019):
# Structures can show the parent of a compound that is named as a salt. Where two headings read alike, the source gives them in different places.
# Assays:
# AaegOR9 = AaegOR9 (Aedes aegypti, UniProt Q177X5); test: Two-electrode voltage clamp of Xenopus oocytes expressing AaegOR9-ORco (tuning curve and concentration-response); format: cell-based; conditions: for Rank according to potency (No.): AaegOR9 tuning curve of Figure 1, 500 nM, 1 = most potent of 31; for Ligand potency in AaegOR9 tuning curve (in words) / AaegOR9 response relative to indole (tuning curve): 500 nM odorant; for Ligand potency in AaegOR9 tuning curve (in words): panel of 31 indole derivatives; for AaegOR9 response relative to indole (tuning curve): responses normalized to indole, n = 10
# Sequence of AaegOR9 (Q178U6 whole entry): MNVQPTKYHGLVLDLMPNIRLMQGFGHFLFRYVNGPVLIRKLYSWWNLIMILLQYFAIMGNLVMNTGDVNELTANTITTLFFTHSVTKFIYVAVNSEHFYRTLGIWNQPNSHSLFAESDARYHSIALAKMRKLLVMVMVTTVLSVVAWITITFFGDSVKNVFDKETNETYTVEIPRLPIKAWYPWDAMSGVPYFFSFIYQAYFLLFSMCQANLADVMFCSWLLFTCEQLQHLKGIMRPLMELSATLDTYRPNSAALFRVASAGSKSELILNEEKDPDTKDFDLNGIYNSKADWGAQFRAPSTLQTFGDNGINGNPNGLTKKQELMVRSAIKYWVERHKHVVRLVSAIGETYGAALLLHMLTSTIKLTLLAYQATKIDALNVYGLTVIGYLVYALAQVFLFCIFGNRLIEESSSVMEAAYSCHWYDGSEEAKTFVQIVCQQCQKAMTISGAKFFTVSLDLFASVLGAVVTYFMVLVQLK
# Sequence of AaegOR9 (Q177X5 entry or part of it): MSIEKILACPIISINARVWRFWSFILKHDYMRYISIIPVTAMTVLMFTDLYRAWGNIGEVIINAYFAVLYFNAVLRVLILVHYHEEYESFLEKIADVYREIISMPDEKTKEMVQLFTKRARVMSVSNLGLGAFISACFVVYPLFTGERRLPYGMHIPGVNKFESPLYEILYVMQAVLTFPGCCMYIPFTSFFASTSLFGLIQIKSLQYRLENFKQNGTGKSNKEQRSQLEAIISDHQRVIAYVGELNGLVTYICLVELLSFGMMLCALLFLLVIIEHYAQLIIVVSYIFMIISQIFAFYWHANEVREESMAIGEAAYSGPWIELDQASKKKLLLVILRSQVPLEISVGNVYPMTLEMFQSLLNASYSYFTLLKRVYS
# Method: The methodologies and protocols have been described in details elsewhere (Bohbot and Dickens, [2009]). AaegOr9 and Aaeg-ORco cRNAs (Bohbot et al., [2011]) were synthesized from linearized pSP64DV expression vectors using the mMESSAGE mMACHINE® SP6 kit (Life Technologies). Stage V-VII oocytes were harvested from Xenopus laevis females, mechanically separated, treated with collagenase (8 mg/mL, 30 min, 18°C) and rinsed in washing solution (96 mM NaCl, 2 mM KCl, 5 mM MgCl2 and 5 mM HEPES, pH 7.6). Oocytes were microinjected with 27.6 ng AaegOr9 and AaegORco cRNAs, incubated at 18°C for 3–4 days in ND96 solution (96 mM NaCl, 2 mM KCl, 5 mM MgCl2, 0.8 mM CaCl2 and 5 mM HEPES, pH 7.6), supplemented with 5% dialyzed horse serum, 50 μg/mL tetracycline, 100 μg/mL streptomycin and 550 μg/mL sodium pyruvate. Whole-cell currents were recorded using the two-microelectrode voltage-clamp technique. During recording sessions, the holding potential was maintained at −80 mV using an OC-725C oocyte clamp (Warner Instruments, LLC, Hamden, CT, USA). Oocytes placed in a RC-3Z oocyte recording chamber (Warner Instruments, LLC, Hamden, CT, USA) were exposed to odorants for 8 s. Current was allowed to return to baseline between odorant applications. Data acquisition and concentration-response analyses were carried out with a Digidata 1550A and the pCLAMP10 software (Molecular Devices, Sunnyvale, CA, USA), and analyzed using GraphPad Prism 7 (GraphPad Software Inc., La Jolla, CA, USA). Stock concentration of odorants (10^−2 M) were dissolved in ringer solution containing 2% dimethyl sulfoxide (DMSO) in order to solubilize the hydrophobic indolic compounds.
# The response profile was established using multiple sessions, each including six compounds at a time and indole as an internal reference. […] All the response values were normalized to the indole reference in each recording session (Supplementary Figure 1).
# For the establishment of the concentration-response curves, oocytes were exposed to increasing concentrations of indole, skatole and indole-3-carboxaldehyde (I3C; Supplementary Figure 2). Quantitative characterization of OR sensitivity was estimated using the averaged effective concentration at 50% of the maximal response (EC50) over the sample population. The data to establish the concentration response curve and EC50 of AaegOR10-skatole was extracted from a previous study (Bohbot and Dickens, [2012]).
# We also included indole and skatole as references (Bohbot et al., [2011]). The screen was carried out using a low odorant concentration (500 nM) in order to mitigate the caveats associated with high ligand concentrations, including receptor adaptation, antagonist effects and technical artifacts such as broad molecular receptive ranges (Bohbot and Pitts, [2015]).
# OR10-ORco [1] = system: OR10-ORco; set-up: method as in Xu et al., 2012; conditions: Amyelois transitella OR10-ORco; pheromone receptor; ref Xu et al., 2012; cited from earlier work
# OR56-ORco = system: OR56-ORco; set-up: method as in Tanaka et al., 2009; conditions: Bombyx mori OR56-ORco; kairomone receptor; ref Tanaka et al., 2009; cited from earlier work
# OR01-ORco [2] = system: OR01-ORco; set-up: method as in Xu et al., 2012; conditions: Bombyx mori OR01-ORco; pheromone receptor; ref Xu et al., 2012; cited from earlier work
# OR65-ORco = system: OR65-ORco; set-up: method as in Wang et al., 2010; conditions: Anopheles gambiae OR65-ORco; kairomone receptor; ref Wang et al., 2010; cited from earlier work
# OR01-ORco [3] = system: OR01-ORco; set-up: method as in Mitsuno et al., 2008; conditions: Plutella xyllostella OR01-ORco; pheromone receptor; ref Mitsuno et al., 2008; cited from earlier work
# OR13-ORco [4] = system: OR13-ORco; set-up: method as in Liu et al., 2013; conditions: Helicoverpa armigera OR13-ORco; pheromone receptor; ref Liu et al., 2013; cited from earlier work
# OR13-ORco [5] = system: OR13-ORco; set-up: method as in Wang et al., 2011; conditions: Heliothis virescens OR13-ORco; pheromone receptor; ref Wang et al., 2011; cited from earlier work
# OR03-ORco [6] = system: OR03-ORco; set-up: method as in Liu et al., 2014; conditions: Spodoptera exigua OR03-ORco; kairomone receptor; ref Liu et al., 2014; cited from earlier work
# OR04-ORco = system: OR04-ORco; set-up: method as in Sun et al., 2013; conditions: Plutella xyllostella OR04-ORco; pheromone receptor; ref Sun et al., 2013; cited from earlier work
# AaegOR10 = conditions: Aedes aegypti OR10-ORco; kairomone receptor; ref Bohbot et al., 2012; cited from earlier work
# Water solubility = format: physicochemical; conditions: skatole vs indole
# OR10-ORco [7] = system: OR10-ORco; set-up: method as in Hughes et al., 2010; conditions: Culex quinquefasciatus OR10-ORco; kairomone receptor; ref Hughes et al., 2010; cited from earlier work
# OR08-ORco = system: OR08-ORco; set-up: method as in Bohbot et al., 2009; conditions: Aedes aegypti OR08-ORco; kairomone receptor; ref Bohbot et al., 2009; cited from earlier work
# OR11-ORco = system: OR11-ORco; set-up: method as in Wanner et al., 2007; conditions: Apis mellifera OR11-ORco; pheromone receptor; ref Wanner et al., 2007; cited from earlier work
# OR06-Orco = system: OR06-Orco; set-up: method as in Wanner et al., 2010; conditions: Ostrinia nubilalis OR06-Orco; pheromone receptor; ref Wanner et al., 2010; cited from earlier work
# OR03-ORco [8] = system: OR03-ORco; set-up: method as in Leary et al., 2012; conditions: Ostrinia furnacalis OR03-ORco; pheromone receptor; ref Leary et al., 2012; cited from earlier work
# OR12-ORco = system: OR12-ORco; set-up: method as in Zhang et al., 2013; conditions: Spodoptera litura OR12-ORco; kairomone receptor; ref Zhang et al., 2013; cited from earlier work
Compound,Rank according to potency (No.) (AaegOR9),other results
O=C(O)C=Cc1c[nH]c2ccccc12 [3-Indoleacrylic acid],18,–
O=C1Cc2ccccc2N1 [2-Oxindole],10,–
CC/C=C\C=C/CCCCCCCCCC=O [Z1 1Z13-16:Ald],–,EC50 (OR10-ORco [1]): 0.499 µM
COc1ccc2[nH]c3c(c2c1)CCNC3 [Pinoline],31,–
CN(C)Cc1c[nH]c2ccccc12 [Gramine],27,Ligand potency in AaegOR9 tuning curve (in words) (AaegOR9): among the least potent ligands
Oc1cccc2[nH]ccc12 [4-Hydroxyindole],7,–
OCCc1c[nH]c2ccccc12 [3-(2-Hydroxyethyl) indole],12,–
NCCc1c[nH]c2ccc(O)cc12 [Serotonin],29,–
CC/C=C\CC1=C(C)CCC1=O [Z-jasmone],–,EC50 (OR56-ORco): 6 µM
"CCC/C=C\C=C\CCCCCCCCCO [E10,Z12-16:OH (Bombykol), Bombykol]",–,EC50 (OR01-ORco [2]): 0.0454 µM
O=C(O)Cc1c[nH]c2ccccc12 [3-Indole acetic acid],28,–
C=CCc1ccc(O)c(OC)c1 [Eugenol],–,EC50 (OR65-ORco): 0.222 µM
O=S(=O)(O)Oc1c[nH]c2ccccc12 [Indoxyl sulfate potassium salt],30,–
Cc1nccc2c1[nH]c1ccccc12 [Harmane],6,–
CCCC/C=C\CCCCCCCCCC=O [Z1 1-16:Ald],–,EC50 (OR01-ORco [3]): 0.88 µM; EC50 (OR13-ORco [4]): 3.4 µM; EC50 (OR13-ORco [5]): 0.367 µM
C[C@H](NC(=O)Cc1c[nH]c2ccccc12)C(=O)O [Indole-3-acetyl-L-alanine],17,–
C=CC(=C)CC/C=C(\C)CCC=C(C)C [E-b-farnesene],–,EC50 (OR03-ORco [6]): 0.3 µM
O=C(O)c1c[nH]c2ccccc12 [Indole-3-carboxylic acid],11,–
O=C(O)CCc1c[nH]c2ccccc12 [Indole-3-propionic acid],15,–
CCCC/C=C\CCCCCCCCOC(C)=O [Z9-14: OAc],–,EC50 (OR04-ORco): 0.243 µM
NC(=O)Cc1c[nH]c2ccccc12 [Indole-3-acetamide],23,–

Compound,Rank according to potency (No.) (AaegOR9),other results
O=C(O)CCCc1c[nH]c2ccccc12 [Indole-3-butyric acid],22,–
c1ccc2c(c1)[nH]c1cnccc12 [Norharmane],13,–
COC(=O)c1c[nH]c2ccccc12 [Methyl indole-3-carboxylate],5,Ligand potency in AaegOR9 tuning curve (in words) (AaegOR9): next most potent ligands
COc1ccc2c3c([nH]c2c1)C(C)=NCC3 [Harmaline],20,–
"Cc1c[nH]c2ccccc12 [skatole, 3-methylindole]",1,"Ligand potency in AaegOR9 tuning curve (in words) (AaegOR9): most potent ligand; AaegOR9 response relative to indole (tuning curve) (AaegOR9): five times higher than indole; AaegOR9 response relative to indole (tuning curve) (AaegOR9; listed as Skatole): five times more potent than indole; EC50 (AaegOR9; AaegOR9, concentrations 100 pM to 10 μM): ~0.005 µM; Fold higher sensitivity of AaegOR9 to skatole than to indole (EC50 ratio) (AaegOR9; AaegOR9, skatole vs indole): 176; EC50 (AaegOR9; Aedes aegypti OR9-ORco, kairomone receptor, This study): 0.0048 µM; Concentration range activating AaegOR9 (AaegOR9; selective and reversible activation): high picomolar (below 1 nM) to low nanomolar (between 1 and 10 nM); EC50 (AaegOR10): 0.109 µM; Water solubility relative to indole (Water solubility): seven times less water soluble; EC50 (OR10-ORco [7]): 0.09 µM"
c1ccc2ncccc2c1 [Quinoline],14,–
"c1ccc2c(Cc3c[nH]c4ccccc34)c[nH]c2c1 [3,3’-Diindolemethane]",8,–
C=C[C@H](O)CCCCC [(R)-(−)-1-octen-3-ol],–,EC50 (OR08-ORco): 0.158 µM
ON=CCc1c[nH]c2ccccc12 [Indole-3-acetaldoxime],21,–
"O=Cc1c[nH]c2ccccc12 [I3C, indole-3-carboxaldehyde]",2,Ligand potency in AaegOR9 tuning curve (in words) (AaegOR9): next most potent ligands
COC(=O)Cc1c[nH]c2ccccc12 [Methyl indole-3-acetate],25,–
O=C1Nc2ccccc2C1=O [Isatin],16,–
O=C1/C(=C2\Nc3ccccc3C2=O)Nc2ccccc21 [Indigo],26,–
N#CCc1c[nH]c2ccccc12 [3-indole acetonitrile],4,Ligand potency in AaegOR9 tuning curve (in words) (AaegOR9): next most potent ligands
CC(=O)CCCCCC=CC(=O)O [9-oxo-2-decenoic acid],–,EC50 (OR11-ORco): 0.28 µM
OCc1c[nH]c2ccccc12 [Indole-3-carbinole],19,Ligand potency in AaegOR9 tuning curve (in words) (AaegOR9): among the least potent ligands
CC/C=C\CCCCCCCCCCOC(C)=O [Z1 1-14:OAc],–,EC50 (OR06-Orco): 0.86 µM; EC50 (OR03-ORco [8]): 0.025 µM
Oc1ccc2[nH]ccc2c1 [5-Hydroxyindole],9,–
NCCc1c[nH]c2ccccc12 [Tryptamine],24,–
CCCC/C=C\CCCCCCCC=O [Z9-14:Ald],–,EC50 (OR13-ORco [5]): 0.24 µM
CC/C=C\CCOC(C)=O [Z3-6:OAc],–,EC50 (OR12-ORco): 0.339 µM
